Measured values published in patent publication US7176316B2, “Amino-piperidine derivatives” (Hoffmann-La Roche Inc., priority 2003, dated 2007).

target: T1, hGlyT-1b (Homo sapiens, UniProt P48067); assay: Glycine uptake inhibition assay (hGlyT-1b), [3H]-glycine uptake in transfected CHO cells; settings: not given
T1 sequence (P48067 1-652 isoform P48067-3): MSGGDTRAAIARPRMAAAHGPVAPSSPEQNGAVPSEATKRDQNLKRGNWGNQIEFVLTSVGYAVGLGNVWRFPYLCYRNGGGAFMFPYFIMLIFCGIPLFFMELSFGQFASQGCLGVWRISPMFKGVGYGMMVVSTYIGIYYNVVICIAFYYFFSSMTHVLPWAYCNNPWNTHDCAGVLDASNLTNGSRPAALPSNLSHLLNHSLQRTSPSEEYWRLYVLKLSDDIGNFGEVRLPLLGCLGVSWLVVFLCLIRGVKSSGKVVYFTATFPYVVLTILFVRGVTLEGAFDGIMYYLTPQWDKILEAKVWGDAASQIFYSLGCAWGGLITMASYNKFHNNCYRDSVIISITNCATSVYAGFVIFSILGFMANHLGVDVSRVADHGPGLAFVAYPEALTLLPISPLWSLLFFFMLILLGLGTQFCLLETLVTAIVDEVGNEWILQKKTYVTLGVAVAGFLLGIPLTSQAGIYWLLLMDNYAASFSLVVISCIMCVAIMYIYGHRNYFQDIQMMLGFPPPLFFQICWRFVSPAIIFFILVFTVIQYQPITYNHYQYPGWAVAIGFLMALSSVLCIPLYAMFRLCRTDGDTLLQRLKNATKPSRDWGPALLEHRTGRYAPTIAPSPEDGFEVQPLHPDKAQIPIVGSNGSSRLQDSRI

| Compound | IC50 [µM] |
| --- | --- |
| O=S(=O)(c1ccc(Cl)c(Cl)c1)N(c1ccccc1)C1CCN([C@@H]2CCCC[C@@H]2c2ccccc2)CC1 (racemic) [Example 1, (+/−)-3,4-Dichloro-N-phenyl-N-[cis-1-(2-phenyl-cyclohexyl)-piperidin-4-yl]-benzenesulfonamide] | 0.048 |
| COc1ccc(S(=O)(=O)N(c2cccc(OC)c2)C2CCN([C@@H]3CCCC[C@@H]3c3ccccc3)CC2)cc1 (racemic) [Example 3, (+/−)-4-Methoxy-N-(3-methoxy-phenyl)-N-[cis-1-(2-phenyl-cyclohexyl)-piperidin-4-yl]-benzenesulfonamide] | 0.094 |
| COc1ccc(S(=O)(=O)N(c2ccccc2)C2CCN([C@@H]3CCCC[C@@H]3c3ccccc3)CC2)cc1 (racemic) [Example 11, (+/−)-4-Methoxy-N-phenyl-N-[cis-1-(2-phenyl-cyclohexyl)-piperidin-4-yl]-benzenesulfonamide] | 0.056 |
| Cc1ccc(S(=O)(=O)N(c2ccc(F)cc2)C2CCN([C@@H]3CCCC[C@@H]3c3ccccc3)CC2)cc1 (racemic) [Example 67, (+/−)-N-(4-Fluoro-phenyl)-4-methyl-N-[cis-1-(2-phenyl-cyclohexyl)-piperidin-4-yl]-benzenesulfonamide] | 0.099 |
| COc1ccc(S(=O)(=O)N(c2ccc(F)cc2)C2CCN([C@@H]3CCCC[C@@H]3c3ccccc3)CC2)cc1 (racemic) [Example 69, (+/−)-N-(4-Fluoro-phenyl)-4-methoxy-N-[cis-1-(2-phenyl-cyclohexyl)-piperidin-4-yl]-benzenesulfonamide] | 0.029 |
| COc1ccc(S(=O)(=O)N(c2cccc(C(F)(F)F)c2)C2CCN([C@@H]3CCCC[C@@H]3c3ccccc3)CC2)cc1 (racemic) [Example 75, (+/−)-4-Methoxy-N-[cis-1-(2-phenyl-cyclohexyl)-piperidin-4-yl]-N-(3-trifluoromethyl-phenyl)-benzenesulfonamide] | 0.068 |
| COc1ccc(S(=O)(=O)N(c2ccccc2)C2CCN([C@@H]3CCCC[C@@]3(O)c3ccccc3)CC2)cc1 (racemic) [Example 99, (+/−)-N-[cis-1-(2-Hydroxy-2-phenyl-cyclohexyl)-piperidin-4-yl]-4-methoxy-N-phenyl-benzenesulfonamide] | 0.028 |
| COc1ccc(S(=O)(=O)N(c2ccc(Cl)cc2)C2CCN([C@@H]3CCCC[C@@]3(O)c3ccccc3)CC2)cc1 (racemic) [Example 102, (+/−)-N-(4-Chloro-phenyl)-N-[cis-1-(2-Hydroxy-2-phenyl-cyclohexyl)-piperidin-4-yl]-4-methoxy-benzenesulfonamide] | 0.092 |
| COc1ccc(S(=O)(=O)N(c2ccc(Cl)cc2)C2CCN([C@@H]3CCCC[C@@]3(O)c3cccnc3)CC2)cc1 (racemic) [Example 105, (+/−)-N-(4-Chloro-phenyl)-N-[cis-1-(2-hydroxy-2-pyridin-3-yl-cyclohexyl)-piperidin-4-yl]-4-methoxy-benzenesulfonamide] | 0.084 |
| COc1ccc(S(=O)(=O)N(c2ccccc2)C2CCN([C@@H]3CCCC[C@@]3(O)c3ccc(Cl)cc3)CC2)cc1 (racemic) [Example 107, (+/−)-N-{cis-1-[2-(4-Chloro-phenyl)-2-hydroxy-cyclohexyl]-piperidin-4-yl}-4-methoxy-N-phenyl-benzenesulfonamide] | 0.083 |
| COc1ccc(S(=O)(=O)N(c2ccccc2)C2CCN([C@@H]3CCCC[C@@]3(O)c3ccc(F)cc3)CC2)cc1 (racemic) [Example 108, (+/−)-N-{cis-1-[2-(4-Fluoro-phenyl)-2-hydroxy-cyclohexyl]-piperidin-4-yl}-4-methoxy-N-phenyl-benzenesulfonamide] | 0.04 |
| COc1ccc(S(=O)(=O)N(c2ccccc2)C2CCN([C@@H]3CCCC[C@@]3(O)c3ccncc3)CC2)cc1 (racemic) [Example 109, (+/−)-N-[cis-1-(2-Hydroxy-2-pyridin-4-yl-cyclohexyl)-piperidin-4-yl]-4-methoxy-N-phenyl-benzenesulfonamide] | 0.073 |
| COc1ccc(S(=O)(=O)N(c2ccccc2)C2CCN([C@@H]3CCCC[C@@]3(O)c3cccnc3)CC2)cc1 (racemic) [Example 110, (+/−)-N-[cis-1-(2-Hydroxy-2-pyridin-3-yl-cyclohexyl)-piperidin-4-yl]-4-methoxy-N-phenyl-benzenesulfonamide] | 0.076 |
| COc1ccc(S(=O)(=O)N(c2ccccc2)C2CCN([C@@H]3CCCC[C@@]3(O)c3ccccc3C)CC2)cc1 (racemic) [Example 111, (+/−)-N-[cis-1-(2-Hydroxy-2-o-tolyl-cyclohexyl)-piperidin-4-yl]-4-methoxy-N-phenyl-benzenesulfonamide] | 0.068 |
| COc1ccc(S(=O)(=O)N(c2ccc(F)cc2)C2CCN([C@@H]3CCCC[C@@]3(O)c3ccccc3)CC2)cc1 (racemic) [Example 112, (+/−)-N-(4-Fluoro-phenyl)-N-[cis-1-(2-Hydroxy-2-phenyl-cyclohexyl)-piperidin-4-yl]-4-methoxy-benzenesulfonamide] | 0.061 |
| COc1ccc(S(=O)(=O)N(c2ccc(F)cc2)C2CCN([C@@H]3CCCC[C@@]3(O)c3ccc(F)cc3)CC2)cc1 (racemic) [Example 114, (+/−)-N-(4-Fluoro-phenyl)-N-{cis-1-[2-(4-fluoro-phenyl)-2-hydroxy-cyclohexyl]-piperidin-4-yl}-4-methoxy-benzenesulfonamide] | 0.066 |
| COc1ccc(S(=O)(=O)N(c2ccc(F)cc2)C2CCN([C@@H]3CCCC[C@@]3(O)c3ccncc3)CC2)cc1 (racemic) [Example 115, (+/−)-N-(4-Fluoro-phenyl)-N-[cis-1-(2-hydroxy-2-pyridin-4-yl-cyclohexyl)-piperidin-4-yl]-4-methoxy-benzenesulfonamide] | 0.071 |
| COc1ccc(S(=O)(=O)N(c2cccc(C(F)(F)F)c2)C2CCN([C@@H]3CCCC[C@@]3(O)c3ccncc3)CC2)cc1 (racemic) [Example 120, (+/−)-N-[cis-1-(2-Hydroxy-2-pyridin-4-yl-cyclohexyl)-piperidin-4-yl]-4-methoxy-N-(3-trifluoromethyl-phenyl)-benzenesulfonamide] | 0.091 |
| COc1ccc(S(=O)(=O)N(c2cccc(C(F)(F)F)c2)C2CCN([C@@H]3CCCC[C@@]3(O)c3cccnc3)CC2)cc1 (racemic) [Example 121, (+/−)-N-[cis-1-(2-Hydroxy-2-pyridin-3-yl-cyclohexyl)-piperidin-4-yl]-4-methoxy-N-(3-trifluoromethyl-phenyl)-benzenesulfonamide] | 0.071 |
| COc1ccc(S(=O)(=O)N(c2cccc(OC)c2)C2CCN([C@@H]3CCCC[C@@]3(O)c3ccccc3)CC2)cc1 (racemic) [Example 123, (+/−)-N-[cis-1-(2-Hydroxy-2-phenyl-cyclohexyl)-piperidin-4-yl]-4-methoxy-N-(3-methoxy-phenyl)-benzenesulfonamide] | 0.095 |
| COc1ccc(S(=O)(=O)N(c2cccc(OC)c2)C2CCN([C@@H]3CCCC[C@@]3(O)c3ccc(F)cc3)CC2)cc1 (racemic) [Example 125, (+/−)-N-{cis-1-[2-(4-Fluoro-phenyl)-2-hydroxy-cyclohexyl]-piperidin-4-yl}-4-methoxy-N-(3-methoxy-phenyl)-benzenesulfonamide] | 0.096 |
| COc1ccc(S(=O)(=O)N(c2ccccc2)C2CCN([C@@H]3CCCC[C@]3(O)c3ccccc3)CC2)cc1 (racemic) [Example 159, (+/−)-N-[trans-1-(2-Hydroxy-2-phenyl-cyclohexyl)-piperidin-4-yl]-4-methoxy-N-phenyl-benzenesulfonamide] | 0.068 |
| COc1ccc(S(=O)(=O)N(c2ccc(F)cc2)C2CCN([C@@H]3COCC[C@@]3(O)c3ccccc3)CC2)cc1 (racemic) [Example 163, (+/−)-N-(4-Fluoro-phenyl)-N-[cis-1-(4-hydroxy-4-phenyl-tetrahydro-pyran-3-yl)-piperidin-4-yl]-4-methoxy-benzenesulfonamide] | 0.085 |
| COc1ccc(S(=O)(=O)N(c2ccccc2)C2CCN([C@@H]3CCCC[C@@]3(O)c3ccccc3)CC2)cc1 [Example 100, (+)-N-[cis-1-(2-Hydroxy-2-phenyl-cyclohexyl)-piperidin-4-yl]-4-methoxy-N-phenyl-benzenesulfonamide] | 0.015 |

same assay, conditions: read-out: IC50 (μM) at GlyT-1

| Compound | IC50 [µM] |
| --- | --- |
| (+)-4-Methoxy-N-phenyl-N-[cis-1-(2-phenyl-cyclohexyl)-piperidin-4-yl]-benzenesulfonamide [Example 96] | 0.049 |
